Measured values from the NIST ThermoML archive (doi:10.1021/je060291c).
Several values for one entry are separate records, joined by “and”; a condition that tells them apart may be missing. Equal values may be shown once.

Experiment: wn = mass fraction of the nth substance listed
Conditions: Liquid, Pulse-echo method, w2 = 0.49

CC(F)(F)F [1,1,1-trifluoroethane] + FC(F)C(F)(F)F
speed of sound
Conditions	288.18 K	298.19 K	308.19 K	318.2 K	328.17 K	338.18 K
1290 kPa	–	375.4 m/s	–	–	–	–
1300 kPa	–	375.4 m/s and 375.5 m/s	–	–	–	–
1360 kPa	–	376.9 m/s	–	–	–	–
1510 kPa	–	379.6 m/s	–	–	–	–
1630 kPa	–	381.8 m/s	–	–	–	–
1670 kPa	–	–	324.1 m/s and 324.2 m/s	–	–	–
1740 kPa	–	–	326 m/s	–	–	–
1750 kPa	–	384.2 m/s	–	–	–	–
1840 kPa	–	–	328.4 m/s	–	–	–
2010 kPa	440.2 m/s	388.7 m/s	332.4 m/s	–	–	–
2120 kPa	–	–	–	270.3 m/s	–	–
2180 kPa	–	–	–	272.6 m/s	–	–
2250 kPa	444 m/s	393 m/s	338 m/s	274.9 m/s	–	–
2360 kPa	–	–	–	278.2 m/s	–	–
2510 kPa	447.4 m/s	397.3 m/s	343.6 m/s	282.9 m/s	–	–
2660 kPa	–	–	–	–	211.8 m/s and 211.9 m/s	–
2750 kPa	450.9 m/s	401.5 m/s	348.9 m/s	290.4 m/s	216.9 m/s	–
2880 kPa	–	–	–	–	223.4 m/s	–
3010 kPa	454.3 m/s	405.6 m/s	354 m/s	297.5 m/s	229.4 m/s	–
3380 kPa	–	–	–	–	–	154.6 m/s
3440 kPa	–	–	–	–	–	160.1 m/s
3500 kPa	460.9 m/s	413.4 m/s	363.8 m/s	310.3 m/s	249.7 m/s	165.9 m/s
3660 kPa	–	–	–	–	–	178.1 m/s
3830 kPa	–	–	–	–	–	189 m/s
4000 kPa	467.5 m/s	421.1 m/s	373.1 m/s	322.1 m/s	266.3 m/s	199.1 m/s
4250 kPa	–	–	–	–	–	211.1 m/s
4500 kPa	473.5 m/s	428.4 m/s	381.8 m/s	333 m/s	280.9 m/s	221.8 m/s
5000 kPa	479.7 m/s	435.4 m/s	390.1 m/s	343.1 m/s	294 m/s	240.3 m/s
6010 kPa	491.5 m/s	448.7 m/s	405.6 m/s	361.7 m/s	316.6 m/s	269.8 m/s
7010 kPa	502.5 m/s	461.1 m/s	419.8 m/s	378.2 m/s	336.3 m/s	293.8 m/s
8000 kPa	513.1 m/s	473 m/s	433.3 m/s	393.4 m/s	353.7 m/s and 354 m/s and 353.9 m/s	314.4 m/s
9000 kPa	523.2 m/s	484.3 m/s	445.6 m/s	407.7 m/s	370 m/s	333 m/s
10000 kPa	532.9 m/s	494.9 m/s	457.5 m/s	420.9 m/s	384.7 m/s	349.3 m/s
12000 kPa	551.3 m/s	515.1 m/s	479.6 m/s	445 m/s	411.3 m/s	378.7 m/s
14000 kPa	568.6 m/s	533.7 m/s	499.8 m/s	466.9 m/s	435.1 m/s	404.3 m/s
16010 kPa	585 m/s	551.1 m/s	518.5 m/s	487 m/s	456.6 m/s	427.4 m/s
18000 kPa	600.2 m/s	567.6 m/s	536.1 m/s	505.5 m/s	476.5 m/s	448.3 m/s
20000 kPa	614.9 m/s	583.2 m/s	552.6 m/s	523 m/s	494.7 m/s	467.8 m/s
23000 kPa	635.8 m/s	605.1 m/s	575.7 m/s	547.4 m/s	520.4 m/s	494.6 m/s
26000 kPa	655.3 m/s	625.5 m/s	597.3 m/s	569.9 m/s	543.8 m/s	519 m/s
29010 kPa	673.8 m/s	645.1 m/s	617.4 m/s	591 m/s	565.9 m/s	541.7 m/s
32000 kPa	691.2 m/s	663.2 m/s	636.3 m/s	610.7 m/s	586.4 m/s	563 m/s
35000 kPa	708.3 m/s	680.8 m/s	654.6 m/s and 654.3 m/s	629.4 m/s	605.5 m/s and 605.8 m/s	583 m/s
40000 kPa	734.9 m/s	708.2 m/s	682.9 m/s	658.7 m/s	635.7 m/s	613.8 m/s
45000 kPa	759.7 m/s	734 m/s	709.3 m/s	685.8 m/s	663.5 m/s	642.4 m/s
50000 kPa	783.2 m/s	758 m/s	734 m/s	711.3 m/s	689.5 m/s	669 m/s
55000 kPa	805.1 m/s	780.7 m/s and 780.9 m/s	757.3 m/s and 757.1 m/s	734.9 m/s	714.1 m/s	693.9 m/s
60000 kPa	826.3 m/s	802.3 m/s and 802.4 m/s	779.5 m/s	757.7 m/s	737.1 m/s	717.2 m/s
65000 kPa	846.7 m/s	823.1 m/s	800.7 m/s	779.3 m/s	759 m/s	739.8 m/s

Conditions	speed of sound [m/s]
298.19 K	375.4
308.19 K	324.2
318.2 K	270.3
328.17 K	211.8
